According to US20100183542A1, “Synergism Between Activated Immune Cells and Conventional Cancer Therapies” (UNIVERSITY OF SOUTH ALABAMA, priority 2006, published 2010):

Key:
Hela cells [1] = assay: Hela cells pre-sensitized with cytokines for 2 days, fresh medium 3 days, WST-1 on day 5 (Experiments 9, 10); type: cell-based; details: for effect on the maximum cytotoxic effect of IFN-γ: Experiment 9: in combination with IFN-γ
Protocol: Hela cells were pre-sensitized with IFN-γ, and IFN-γ in combination with other cytokines for 2 days. The pre-sensitized Hela cells were then cultured with fresh complete RPMI 1640 for another 3 days. Cell viability was measured by WST-1 assay on day 5.
The pre-sensitized Hela cells were cultured with fresh complete RPMI 1640 for another 3 days. Cell viability was measured by WST-1 assay on day 5.

Hela cells [2] = assay: Hela cells pre-sensitized with cytokines, 4 Gy gamma radiation, WST-1 on day 5 (Experiments 7, 8, 11, 12, 13); type: cell-based
Protocol: (§1) Hela cells were pre-sensitized for 2 days with each cytokine listed on FIG. 29. The pre-sensitized Hela cells were thereafter trypsinzed, washed, and irradiated with 4 Gy of gamma radiation. The irradiated cells were plated in 96-well plate at 5000 cells per well in 200 μl of complete medium. Cell viability was measured by WST-1 reagent on day 5.
as §1, with “by individual cytokines, combinations or all cytokines.” for “with each cytokine listed on FIG. 29.”, “harvested,” for “trypsinzed,”, “RPMI 1640” for “complete”, “assay” for “reagent”
Hela cells were pre-sensitized with various combinations of cytokines identified in FIG. 33. The pre-sensitized Hela cells were made single suspension and irradiated by 4 Gy of gamma radiation. The irradiated cells were plated in 96-well plate at 5000 cells per well in 200 μl RPMI 1640 medium. Cell viability was measured by WST-1 assay on day 5.
Hela cells were pre-sensitized for 2 days with CD4+ T cells, a combination of [IFN-γ/TNF-α/IL-2/Il-6], or a combination of all cytokines. The pre-sensitized cells were thereafter placed into a single suspension and irradiated by 4 Gy of gamma radiation. The irradiated cells were plated in 96-well plate at 5000 cells per well in 200 μl RPMI 1640 medium. Cell viability was measured by WST-1 assay on day 5.
Another experiment was performed similar to experiment 16, except that [IFN-γ/TNF-α] was used instead of the combination of [IFN-γ/TNF-α/Il-2/Il-6].

TNF-α
effect on the maximum cytotoxic effect of IFN-γ (Hela cells [1]): added effect

GM-CSF: cytokine
effect on the maximum cytotoxic effect of IFN-γ (Hela cells [1]): added effect

IFN-γ: cytokine
contribution to enhanced effect of gamma irradiation (Hela cells [2]; Experiment 7: each cytokine 2 days, 4 Gy): major factor contributing to the enhanced effect of gamma irradiation
synergistic effect with gamma radiation (Hela cells [2]; Experiment 11: 4 Gy): Synergistic effect

B1: IFN-γ: cytokine (protein, UniProt P01579 24-161, looked up)
Interferon gamma: QDPYVKEAENLKKYFNAGHSDVADNGTLFLGILKNWKEESDRKIMQSQIVSFYFKLFKNFKDDQSIQKSVETIKEDMNVKFFNSNKKKRDDFEKLTNYSVTDLNVQRKAIHELIQVMAELSPAAKTGKRKRSQMLFRG
contribution to cytotoxicity of gamma irradiation (Hela cells [2]; Experiment 8: individual cytokines, combinations or all cytokines 2 days, 4 Gy): contributes to enhance cytotoxicity of gamma irradiation
contribution to cytotoxicity (Hela cells [1]; Experiment 9: 2 days pre-sensitization, 3 days fresh medium): contributes to enhance cytotoxicity of gamma irradiation
